Reference: patent US12303588B2, “Composition containing Cirsium japonicum extract as active ingredient for stimulating melanogenesis” (BIOSPECTRUM, INC., priority 2017, dated 2025)

System: human skin
Test: Cumulative skin irritation patch test (safety to the human skin)
Format: in vivo
Details: 30 adults; for Number of subjects showing response ±: 1st week
Experimental: In order to identify as to whether the Cirsium japonicum extract is safe or not, a test for identifying the safety to the human skin was performed. For this, a cumulative skin irritation was carried out. A nutritious cream containing 0.1%, 0.5% and 1% of Cirsium japonicum extracts of Example 1, respectively, was prepared. Specifically, purified water, triethanolamine, and propylene glycol were heated and dissolved at a temperature of 70° C. (aqueous phase). Beeswax, liquid paraffin, oily ingredients, emulsifiers and preservatives were heated and dissolved at a temperature of 70° C. (oil phase). The oil phase was added to the aqueous phase to prepare an emulsion. After emulsification was completed, the solution was cooled to 45° C., and Cirsium japonicum extracts were added 0.1%, 0.5% and 1% respectively, dispersed and then cooled to 30° C. As the content of the Cirsium japonicum extract was increased to 0.1%, 0.5% and 1%, the nutritional cream was prepared by reducing the content of the liquid paraffin to 9.91%, 9.51% and 9.01%, respectively. The nourishing cream prepared as described above was applied as a patch to areas of humerus of 30 adults for accumulated 24 hours on alternate day in total 9 times to test as to whether the Cirsium japonicum extract stimulates the skin. The patch used Finn chamber ([…]) and the patch was practiced after dropping with […] of the skin external preparations prepared from the above, respectively. The degree of the reaction represented on the skin in every time was scored by using the below experimental formula 1. Mean reaction degree=[{(reaction index×reaction degree)/(total number of the subject×the highest score (four point))}×100]/times of the test (9times) [Experimental Formula 1] In regard to the response degree, 1 point was provided for ±, 2 points for +, and 4 points for ++. When the mean reaction degree is less than 3, it is considered as being the safe composition.

Q: How did the “Number of subjects showing response ±” value (1st application) turn out when `CC(C)=CCC/C(C)=C/CC/C(C)=C/CC/C=C(\C)CC/C=C(\C)CCC=C(C)C` [Control group (Squalene), Squalene] was run?
A: 1

Q: And the “Number of subjects showing response ±” value (2nd application)?
A: 0

Q: And the Average response degree (24 h patch on alternate days, 9 times, less than 3 = safe)?
A: 0.09
